Assays:
[1] = target: T1, SMARCA2 (Homo sapiens, UniProt P51531); assay: SMARCA2 HiBiT degradation assay in HeLa cells; assay type: cell-based; conditions: 18 hours, highest concentration 10 μM
T1 construct: SMARCA2-HiBiT knock-in Hela monoclonal cell (CS302366); host or cells: HeLa monoclonal cells with heterozygous HiBiT knock-in at the endogenous SMARCA2 locus
In short: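 HeLa cells carrying a heterozygous C-terminal HiBiT knock-in on SMARCA2 were seeded at 2500 cells/well. They were treated with 3-fold dilution series, top concentration 10 μM, for 18 h at 37 °C. Remaining SMARCA2-HiBiT was measured by Nano-Glo HiBiT lytic luminescence after 30-60 min at RT, followed by curve fitting.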

[2] = target: T2, SMARCA4 (Homo sapiens, UniProt P51532); assay: SMARCA4 HiBiT degradation assay in HeLa cells; assay type: cell-based; conditions: 18 hours, highest concentration 10 μM
T2 construct: SMARCA4-HiBiT knock-in Hela monoclonal cell (CS3023226); host or cells: HeLa monoclonal cells with heterozygous HiBiT knock-in at the endogenous SMARCA4 locus
T2 sequence (P51532 whole entry): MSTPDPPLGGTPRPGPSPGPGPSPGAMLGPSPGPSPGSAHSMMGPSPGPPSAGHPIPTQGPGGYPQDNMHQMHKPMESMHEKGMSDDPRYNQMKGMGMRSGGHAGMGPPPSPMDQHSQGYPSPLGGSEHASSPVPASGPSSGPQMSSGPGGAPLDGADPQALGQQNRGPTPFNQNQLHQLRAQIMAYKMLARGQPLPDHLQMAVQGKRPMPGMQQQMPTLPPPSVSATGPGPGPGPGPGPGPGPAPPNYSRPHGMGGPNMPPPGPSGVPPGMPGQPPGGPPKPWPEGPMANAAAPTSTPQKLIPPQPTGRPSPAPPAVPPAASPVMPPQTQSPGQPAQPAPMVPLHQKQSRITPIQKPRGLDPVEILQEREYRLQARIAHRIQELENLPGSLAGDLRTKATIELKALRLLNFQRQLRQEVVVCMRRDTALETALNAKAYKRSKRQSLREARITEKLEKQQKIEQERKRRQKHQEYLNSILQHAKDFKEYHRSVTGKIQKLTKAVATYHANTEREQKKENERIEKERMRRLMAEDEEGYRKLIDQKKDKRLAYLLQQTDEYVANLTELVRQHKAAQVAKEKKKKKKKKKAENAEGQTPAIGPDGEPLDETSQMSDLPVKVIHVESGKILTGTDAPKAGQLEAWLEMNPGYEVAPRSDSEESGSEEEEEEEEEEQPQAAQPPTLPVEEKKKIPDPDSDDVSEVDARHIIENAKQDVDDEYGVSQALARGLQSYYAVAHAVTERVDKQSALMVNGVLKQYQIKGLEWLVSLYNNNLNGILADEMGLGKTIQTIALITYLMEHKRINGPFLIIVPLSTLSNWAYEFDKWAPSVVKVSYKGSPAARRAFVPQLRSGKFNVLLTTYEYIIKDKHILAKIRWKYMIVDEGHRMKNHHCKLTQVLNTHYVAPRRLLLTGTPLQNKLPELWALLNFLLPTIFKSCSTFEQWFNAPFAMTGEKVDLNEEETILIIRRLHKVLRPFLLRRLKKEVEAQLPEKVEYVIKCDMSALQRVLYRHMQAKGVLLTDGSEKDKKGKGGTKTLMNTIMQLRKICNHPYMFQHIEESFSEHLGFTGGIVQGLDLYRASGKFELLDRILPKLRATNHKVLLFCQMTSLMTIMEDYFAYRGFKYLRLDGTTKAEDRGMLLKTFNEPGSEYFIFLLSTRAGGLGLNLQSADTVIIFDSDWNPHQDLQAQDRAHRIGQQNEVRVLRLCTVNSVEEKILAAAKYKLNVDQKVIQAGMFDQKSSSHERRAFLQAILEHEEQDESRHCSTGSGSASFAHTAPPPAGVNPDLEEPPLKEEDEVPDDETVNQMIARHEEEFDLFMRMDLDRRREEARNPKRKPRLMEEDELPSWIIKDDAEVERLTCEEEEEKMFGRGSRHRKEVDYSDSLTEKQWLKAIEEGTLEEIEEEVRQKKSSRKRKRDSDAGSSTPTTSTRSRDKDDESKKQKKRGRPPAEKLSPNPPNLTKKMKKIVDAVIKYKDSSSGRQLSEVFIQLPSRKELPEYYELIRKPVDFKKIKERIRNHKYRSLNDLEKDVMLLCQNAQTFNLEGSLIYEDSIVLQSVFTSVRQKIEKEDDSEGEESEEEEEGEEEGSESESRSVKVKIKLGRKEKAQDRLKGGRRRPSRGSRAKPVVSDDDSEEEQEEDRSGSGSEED
In short: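 HeLa monoclonal cells with HiBiT knocked into SMARCA4 were seeded at 2500 cells/well, dosed with compound and incubated 18 hours at 37° C. HiBiT signal reported remaining SMARCA4 protein, and values came from curve fitting.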

T1 sequence (P51531 whole entry): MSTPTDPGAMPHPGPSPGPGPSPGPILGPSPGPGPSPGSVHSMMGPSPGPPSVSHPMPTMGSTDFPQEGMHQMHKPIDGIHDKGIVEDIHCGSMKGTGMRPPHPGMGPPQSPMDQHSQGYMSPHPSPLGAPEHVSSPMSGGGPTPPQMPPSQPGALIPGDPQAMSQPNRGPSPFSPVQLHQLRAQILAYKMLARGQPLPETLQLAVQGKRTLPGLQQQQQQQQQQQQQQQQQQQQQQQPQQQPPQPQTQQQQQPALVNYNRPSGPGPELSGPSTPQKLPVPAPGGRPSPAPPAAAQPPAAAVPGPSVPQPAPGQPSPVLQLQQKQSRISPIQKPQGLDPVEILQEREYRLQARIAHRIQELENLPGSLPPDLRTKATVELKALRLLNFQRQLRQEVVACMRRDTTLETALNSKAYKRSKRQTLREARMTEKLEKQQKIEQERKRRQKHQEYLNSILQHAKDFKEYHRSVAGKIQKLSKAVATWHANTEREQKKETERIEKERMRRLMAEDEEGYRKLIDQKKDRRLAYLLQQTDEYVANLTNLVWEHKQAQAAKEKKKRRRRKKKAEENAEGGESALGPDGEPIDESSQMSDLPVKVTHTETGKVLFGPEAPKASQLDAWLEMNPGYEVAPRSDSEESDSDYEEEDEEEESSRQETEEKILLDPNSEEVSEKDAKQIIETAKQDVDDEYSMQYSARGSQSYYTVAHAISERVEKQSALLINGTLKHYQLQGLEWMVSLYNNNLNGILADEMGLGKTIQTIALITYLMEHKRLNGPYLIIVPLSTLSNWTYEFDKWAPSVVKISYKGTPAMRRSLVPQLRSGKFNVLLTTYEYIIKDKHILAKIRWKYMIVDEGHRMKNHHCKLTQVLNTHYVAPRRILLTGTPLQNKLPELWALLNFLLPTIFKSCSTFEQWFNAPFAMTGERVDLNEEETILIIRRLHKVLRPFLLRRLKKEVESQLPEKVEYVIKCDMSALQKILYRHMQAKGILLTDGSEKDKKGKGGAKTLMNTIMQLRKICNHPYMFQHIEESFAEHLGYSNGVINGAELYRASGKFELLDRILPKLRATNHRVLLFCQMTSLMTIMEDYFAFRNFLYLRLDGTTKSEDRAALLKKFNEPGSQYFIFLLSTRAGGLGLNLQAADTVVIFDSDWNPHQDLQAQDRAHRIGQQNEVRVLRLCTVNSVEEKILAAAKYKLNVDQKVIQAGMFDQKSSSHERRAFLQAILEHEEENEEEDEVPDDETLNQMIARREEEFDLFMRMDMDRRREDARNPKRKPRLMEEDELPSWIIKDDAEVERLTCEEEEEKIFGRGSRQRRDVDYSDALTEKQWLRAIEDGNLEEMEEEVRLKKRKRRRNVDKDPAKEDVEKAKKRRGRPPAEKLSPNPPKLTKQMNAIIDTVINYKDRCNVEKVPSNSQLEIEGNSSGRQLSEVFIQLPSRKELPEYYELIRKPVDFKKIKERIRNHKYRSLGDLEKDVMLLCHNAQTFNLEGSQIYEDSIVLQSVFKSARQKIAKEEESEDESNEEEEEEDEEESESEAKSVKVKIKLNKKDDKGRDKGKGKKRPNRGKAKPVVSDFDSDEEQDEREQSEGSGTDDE

Structure (SMILES)	DC50 [1] [nM]	Dmax [1] [%]	DC50 [2] [nM]	Dmax [2] [%]
Cc1nc(CN2CCC(c3ccc4c(c3)C(=O)N([C@H]3CCC(=O)NC3=O)C4)CC2)cnc1O[C@H]1CN2c3cc(-c4cccc(F)c4O)nnc3NC[C@]2(C(F)F)C1 [Example 91, (S)-3-(6-(1-((5-(((6aS,8R)-6a-(difluoromethyl)-2-(3-fluoro-2-hydroxyphenyl)-5,6,6a,7,8,9-hexahydropyrrolo[1′,2′:4,5]pyrazino[2,3-c]pyridazin-8-yl)oxy)-6-methylpyrazin-2-yl)methyl)piperidin-4-yl)-1-oxoisoindolin-2-yl)piperidine-2,6-dione]	< 100	> 75	< 100	50 to 75
Cc1cc(CN2CCC(c3ccc4c(c3)C(=O)N([C@H]3CCC(=O)NC3=O)C4)CC2)ncc1O[C@H]1CN2c3cc(-c4cccc(F)c4O)nnc3NC[C@]2(C(F)F)C1 [Example 92, (S)-3-(6-(1-((5-(((6aS,8R)-6a-(difluoromethyl)-2-(3-fluoro-2-hydroxyphenyl)-5,6,6a,7,8,9-hexahydropyrrolo[1′,2′:4,5]pyrazino[2,3-c]pyridazin-8-yl)oxy)-4-methylpyridin-2-yl)methyl)piperidin-4-yl)-1-oxoisoindolin-2-yl)piperidine-2,6-dione]	< 100	> 75	< 100	50 to 75
Cc1cc(CN2CCC(c3ccc4c(c3)C(=O)N([C@H]3CCC(=O)NC3=O)C4)CC2)ncc1O[C@H]1CN2c3cc(-c4cccc(C)c4O)nnc3NC[C@]2(C(F)F)C1 [Example 94, (S)-3-(6-(1-((5-(((6aS,8R)-6a-(difluoromethyl)-2-(2-hydroxy-3-methylphenyl)-5,6,6a,7,8,9-hexahydropyrrolo [1′,2′:4,5]pyrazino[2,3-c]pyridazin-8-yl)oxy)-4-methylpyridin-2-yl)methyl)piperidin-4-yl)-1-oxoisoindolin-2-yl)piperidine-2,6-dione]	< 100	50 to 75	> 1000	< 50
CC[C@]12CNc3nnc(-c4cccc(Cl)c4O)cc3N1C[C@H](Oc1cnc(CN3CCC(c4ccc5c(c4)C(=O)N([C@H]4CCC(=O)NC4=O)C5)CC3)c(Cl)c1)C2 [Example 99, (S)-3-(6-(1-((3-chloro-5-(((6aS,8R)-2-(3-chloro-2-hydroxyphenyl)-6a-ethyl-5,6,6a,7,8,9-hexahydropyrrolo[1′,2′:4,5]pyrazino[2,3-c]pyridazin-8-yl)oxy)pyridin-2-yl)methyl)piperidin-4-yl)-1-oxoisoindolin-2-yl)piperidine-2,6-dione]	< 100	> 75	< 100	50 to 75
CC[C@@]12CNc3nnc(-c4cccc(F)c4O)cc3N1C[C@H](Oc1cnc(CN3CCC(c4ccc5c(c4)C(=O)N([C@H]4CCC(=O)NC4=O)C5)CC3)c(F)c1)C2 [Example 101, (S)-3-(6-(1-((5-(((6aR,8R)-6a-ethyl-2-(3-fluoro-2-hydroxyphenyl)-5,6,6a,7,8,9-hexahydropyrrolo[1′,2′:4,5]pyrazino[2,3-c]pyridazin-8-yl)oxy)-3-fluoropyridin-2-yl)methyl)piperidin-4-yl)-1-oxoisoindolin-2-yl)piperidine-2,6-dione]	< 100	> 75	100 to 1000	< 50

Further lines, results first:

DC50 [1] [nM]	Dmax [1] [%]	DC50 [2] [nM]	Dmax [2] [%]	Structure (SMILES)
< 100	> 75	> 1000	< 50	Cc1cc(O[C@H]2CN3c4cc(-c5cccc(F)c5O)nnc4NC[C@@]3(CF)C2)ncc1CN1CCC(c2ccc3c(c2)C(=O)N([C@H]2CCC(=O)NC2=O)C3)CC1 [Example 93, (S)-3-(6-(1-((6-(((6aR,8R)-2-(3-fluoro-2-hydroxyphenyl)-6a-(fluoromethyl)-5,6,6a,7,8,9-hexahydropyrrolo [1′,2′:4,5]pyrazino[2,3-c]pyridazin-8-yl)oxy)-4-methylpyridin-3-yl)methyl)piperidin-4-yl)-1-oxoisoindolin-2-yl)piperidine-2,6-dione]
< 100	> 75	> 1000	< 50	CC[C@@]12CNc3nnc(-c4cccc(C)c4O)cc3N1C[C@H](Oc1cnc(CN3CCC(c4ccc5c(c4)C(=O)N([C@H]4CCC(=O)NC4=O)C5)CC3)c(C)c1C)C2 [Example 95, (S)-3-(6-(1-((5-(((6aR,8R)-6a-ethyl-2-(2-hydroxy-3-methylphenyl)-5,6,6a,7,8,9-hexahydropyrrolo[1′,2′:4,5]pyrazino[2,3-c]pyridazin-8-yl)oxy)-3,4-dimethylpyridin-2-yl)methyl)piperidin-4-yl)-1-oxoisoindolin-2-yl)piperidine-2,6-dion]
< 100	> 75	100 to 1000	< 50	CC[C@]12CNc3nnc(-c4cccc(C)c4O)cc3N1C[C@H](Oc1nc(C)c(CN3CCC(c4ccc5c(c4)C(=O)N([C@H]4CCC(=O)NC4=O)C5)CC3)c(C)n1)C2 [Example 96, (S)-3-(6-(1-((2-(((6aS,8R)-6a-ethyl-2-(2-hydroxy-3-methylphenyl)-5,6,6a,7,8,9-hexahydropyrrolo[1′,2′:4,5]pyrazino[2,3-c]pyridazin-8-yl)oxy)-4,6-dimethylpyrimidin-5-yl)methyl)piperidin-4-yl)-1-oxoisoindolin-2-yl)piperidine-2,6-dione]
< 100	> 75	< 100	50 to 75	CC[C@]12CNc3nnc(-c4cccc(C)c4O)cc3N1C[C@H](Oc1cnc(CN3CCC(c4ccc5c(c4)C(=O)N([C@H]4CCC(=O)NC4=O)C5)CC3)c(C)c1)C2 [Example 97, (S)-3-(6-(1-((5-(((6aS,8R)-6a-ethyl-2-(2-hydroxy-3-methylphenyl)-5,6,6a,7,8,9-hexahydropyrrolo[1′,2′:4,5]pyrazino[2,3-c]pyridazin-8-yl)oxy)-3-methylpyridin-2-yl)methyl)piperidin-4-yl)-1-oxoisoindolin-2-yl)piperidine-2,6-dione]
< 100	> 75	< 100	> 75	CC[C@]12CNc3nnc(-c4cccc(C)c4O)cc3N1C[C@H](Oc1cc(C)c(CN3CCC(c4ccc5c(c4)C(=O)N([C@H]4CCC(=O)NC4=O)C5)CC3)cn1)C2 [Example 98, (S)-3-(6-(1-((6-(((6aS,8R)-6a-ethyl-2-(2-hydroxy-3-methylphenyl)-5,6,6a, 7,8,9-hexahydropyrrolo[1′,2′:4,5]pyrazino[2,3-c]pyridazin-8-yl)oxy)-4-methylpyridin-3-yl)methyl)piperidin-4-yl)-1-oxoisoindolin-2-yl)piperidine-2,6-dione]
< 100	> 75	100 to 1000	< 50	CC[C@@]12CNc3nnc(-c4cccc(Cl)c4O)cc3N1C[C@H](Oc1cc(C)c(CN3CCC(c4ccc5c(c4)C(=O)N([C@H]4CCC(=O)NC4=O)C5)CC3)cn1)C2 [Example 100, (S)-3-(6-(1-((6-(((6aR,8R)-2-(3-chloro-2-hydroxyphenyl)-6a-ethyl-5,6,6a,7,8,9-hexahydropyrrolo[1′,2′:4,5]pyrazino[2,3-c]pyridazin-8-yl)oxy)-4-methylpyridin-3-yl)methyl)piperidin-4-yl)-1-oxoisoindolin-2-yl)piperidine-2,6-dione]
